From patent publication US12070452B2, “Compounds targeting HSP110 protein for cancer treatment” (INSERM (Institut National de la Santé et de la Recherche …, priority 2018, dated 2024)
Entries after “also recorded” stand apart in the source; their conditions may differ.

How the values were obtained:
SW480 cells = assay: Cell proliferation, Cell Trace Violet flow cytometry, SW480; assay type: cell-based, human; conditions: SW480 cells with shRNA control, 10 μM, 96 h
Protocol: FIG. 4A: Relative quantification of cell proliferation in SW480 cells transfected with shRNA for shRNA control (shCtrl) (from the first to the fourth columns from left to right) or HSP110-silencing (sh110) (from the fifth to the last columns, from left to right) treated with Ctrl (DMSO), compound 33, compound 52, and comparative compound 61 at a concentration of 10 μM during 96 h (Histogram columns from the left to the right). Ordinate: Percentage of SW480 cell proliferation (scale 20) for the upper figure; Statistical analysis has been performed by ANOVA **: (p<0.05); ***: p<0.005. Western blot of HSP110 and actin (first and second line of blots) for the shCtrl SW480 cells and sh110 SW480 cells (first and second columns).
Colorectal cells lines were purchased from the American Type Culture Collection. CT-26 and HCT116 were cultured in Roswell Park Memorial Institute 1640 medium. […]
Proliferation was determined by staining cells with Cell Trace Violet (Invitrogen-C34557) according to the manufacturer's procedure. Cell divisions were detected over 96 h by flow cytometry (LSRII cytometer) and the number of cell generations was estimated by ModFit software. […]

HSP110:STAT3 complex = target: T1, HSP110:STAT3 complex (Homo sapiens, UniProt Q92598); assay: Immunoprecipitation of HSP110:STAT3 complex in SW480 cells; assay type: cell-based; conditions: SW480 shCtrl cells, 10 μM, 48 h
T1 construct: disrupting HSP110:STAT3 complex within the cell using human colorectal SW480 cancer cells; endogenous in cells; host or cells: SW480 cells carrying control shRNA (shCtrl); sh110 cells as HSP110-depleted control
Protocol: FIG. 2A: Immunoprecipitation (IP) analysis of HSP110 protein (first line), STAT3 protein (second line) compared with total Immunoglobuline (Ig) and actin in SW480 cells treated with (from left to the right column) non-relevant antibody as control (called NT a Normal rabbit IgG (sc-2027) from Santa Cruz Biotechnologies), compound 52 (related to formula (III)), compound 33 (related to formula (II)), compound 51 (related to formula (IV)) and comparative compound 61 at a concentration of 10 μM during 48 h on shCtrl cells transfected with shRNA for shRNA control (referenced ShCtrl IP:STAT3 for the five first columns) or HSP110-silencing (sh110) (referenced sh110-IP:STAT3 for the two last columns) (from the left to the right columns). Immunoprecipitation analysis of HSP110 (first line), STAT3 (second line) compared with total Ig and actin (second blot in the right) is observed with shCtrl cells transfected with shRNA for shRNA control (shCtrl) or HSP110-silencing (sh110) (left to right columns).
FIG. 2B: Quantification of HSP110:STAT3 disruption in percentage considering the total amount of HSP110 protein normalized by the signal intensity of the Ig band of FIG. 1 panel A. (Ordinate: Percentage of STAT3:HSP110 protein interaction (scale 50)). The histogram measured quantification in percentage for ShCtrl IP: STAT3 treated with Ctrl, compounds 52, 33, 51 and comparative compound 61, and for shCtrl cells transfected with shRNA for shRNA control referenced ShCtrl IP: STAT3) or HSP110-silencing (sh110) (referenced sh110-IP: STAT3) (from the left to the right column)
Immunoprecipitation test were realized on human colorectal cancer cells (SW480 and HCT116 cell lines), using a control depleted in HSP110 called Sh110 and a not depleted cells in HSP110. STAT3 phosphorylation is then […] by compounds 33 and 52. Depletion of HSP110 in the negative control blocked the phosphorylation of STAT3 without affecting STAT3 overall levels (FIGS. 2 and 3).

NFκB signaling pathway = assay: Western blot of NFκB signaling and Myd88 in DLBCL cell lines; assay type: cell-based, human; conditions: for IkB phosphorylation (P-IKB): two DLBCL cell lines, 24 h of treatment
Protocol: FIG. 10B: Expression of HSP110 (first line), P-P65 (S276) (second line), P65 (third line), Myd88 (fourth line) and Actin (fifth line) in TMD8 human B cell lymphoma cell line (left part of FIG. 10B) or in HBL1 human diffuse large B-cell lymphoma cell line (right part of FIG. 10B), both cell lines being treated with Control (DMSO) and compound 33.
FIG. 10C: Expression, after 24 h of treatment, of HSP110 (first line), P-IKB (second line), IKB (third line) and Actin (fourth line) in TMD8 human B cell lymphoma cell line (right part of FIG. 10C) or in OCI-Ly3 human diffuse large B-cell lymphoma cell line (left part of FIG. 10C), both cell lines being treated with Control (DMSO), control compound 61, compound 52 and compound 33.

human protein HSP110 = target: T2, human protein HSP110 (Homo sapiens, UniProt Q92598); assay: HSP110 anti-aggregation function (luciferase substrate test); assay type: biochemical; conditions: human HSP110 1.5 μM with firefly luciferase, 30 min at 42° C.; read-out: IC50 of HSP110 anti-aggregating activity
T2 construct: DNA coding the NBD-HSP110 (from human-HSP110)
Protocol: Anti-aggregation function of HSP110 was evaluated as described by O H et al (The Journal of biological chemistry 274, 15712-15718 (1999)). The human protein HSP110 (obtained as described above) at a concentration of 1.5 μM was incubated with firefly luciferase (from Sigma—from Photinus pyralis) in reaction buffer and heated in water bath for 30 min at 42° C.
Compounds of the present invention were added in reaction buffer to achieve the indicated concentrations and the final DMSO concentration was held constant at 1%. The heated reaction was diluted 10 times into buffer containing 60% of rabbit reticulocytelysate and incubated for 2 hours. The luciferase activity was measured by diluting 5 times the solution in HEPES and adding 5 μL of the solution in luciferase substrate (50 μL of Luciferase Assay System—Promega E1501 diluted in HEPES). The bioluminescence was reading with Envision Perkin Elmer.
The percentage of activity (x) was calculated by using the following equation: x=[(A−B)/(C−B)]×100, where (A) is the luciferase luminescence in presence of compounds of the invention, (B) in absence of HSP110 and (C) in presence of DMSO (Control). The percentage of total folding HSP110-promoted (mean=36%) was calculated considering as 100% the luminescence of luciferase incubated with HSP110 without heat shock. The IC50 were calculated from the dose-response curves, which were fitted by GraphPrism (Equation: Y=100/(1+10^((Log IC50−X)*HillSlope)).

T2 sequence (Q92598 whole entry, looked up): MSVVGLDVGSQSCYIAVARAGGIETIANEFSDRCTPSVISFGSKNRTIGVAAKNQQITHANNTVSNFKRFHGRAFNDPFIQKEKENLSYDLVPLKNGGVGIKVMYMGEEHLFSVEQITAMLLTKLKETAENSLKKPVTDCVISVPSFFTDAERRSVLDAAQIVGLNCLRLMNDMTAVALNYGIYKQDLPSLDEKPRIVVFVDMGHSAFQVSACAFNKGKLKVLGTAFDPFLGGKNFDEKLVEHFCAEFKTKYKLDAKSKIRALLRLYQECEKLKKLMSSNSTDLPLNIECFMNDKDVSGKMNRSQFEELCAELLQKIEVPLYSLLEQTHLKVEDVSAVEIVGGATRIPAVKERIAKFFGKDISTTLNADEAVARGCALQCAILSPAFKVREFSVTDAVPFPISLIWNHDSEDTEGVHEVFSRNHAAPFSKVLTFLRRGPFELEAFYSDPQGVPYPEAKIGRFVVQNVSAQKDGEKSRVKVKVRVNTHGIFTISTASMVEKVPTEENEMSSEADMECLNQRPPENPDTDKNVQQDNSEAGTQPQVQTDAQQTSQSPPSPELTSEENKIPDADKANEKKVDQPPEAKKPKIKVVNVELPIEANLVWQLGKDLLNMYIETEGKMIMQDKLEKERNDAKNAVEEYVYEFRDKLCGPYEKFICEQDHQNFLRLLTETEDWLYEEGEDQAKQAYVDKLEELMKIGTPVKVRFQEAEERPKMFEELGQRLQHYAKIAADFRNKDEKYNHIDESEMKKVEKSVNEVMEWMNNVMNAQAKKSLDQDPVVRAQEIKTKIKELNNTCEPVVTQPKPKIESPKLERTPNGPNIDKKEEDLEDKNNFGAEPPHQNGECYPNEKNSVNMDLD
T1 sequence (Q92598 2-858 limits assumed, one chain of several): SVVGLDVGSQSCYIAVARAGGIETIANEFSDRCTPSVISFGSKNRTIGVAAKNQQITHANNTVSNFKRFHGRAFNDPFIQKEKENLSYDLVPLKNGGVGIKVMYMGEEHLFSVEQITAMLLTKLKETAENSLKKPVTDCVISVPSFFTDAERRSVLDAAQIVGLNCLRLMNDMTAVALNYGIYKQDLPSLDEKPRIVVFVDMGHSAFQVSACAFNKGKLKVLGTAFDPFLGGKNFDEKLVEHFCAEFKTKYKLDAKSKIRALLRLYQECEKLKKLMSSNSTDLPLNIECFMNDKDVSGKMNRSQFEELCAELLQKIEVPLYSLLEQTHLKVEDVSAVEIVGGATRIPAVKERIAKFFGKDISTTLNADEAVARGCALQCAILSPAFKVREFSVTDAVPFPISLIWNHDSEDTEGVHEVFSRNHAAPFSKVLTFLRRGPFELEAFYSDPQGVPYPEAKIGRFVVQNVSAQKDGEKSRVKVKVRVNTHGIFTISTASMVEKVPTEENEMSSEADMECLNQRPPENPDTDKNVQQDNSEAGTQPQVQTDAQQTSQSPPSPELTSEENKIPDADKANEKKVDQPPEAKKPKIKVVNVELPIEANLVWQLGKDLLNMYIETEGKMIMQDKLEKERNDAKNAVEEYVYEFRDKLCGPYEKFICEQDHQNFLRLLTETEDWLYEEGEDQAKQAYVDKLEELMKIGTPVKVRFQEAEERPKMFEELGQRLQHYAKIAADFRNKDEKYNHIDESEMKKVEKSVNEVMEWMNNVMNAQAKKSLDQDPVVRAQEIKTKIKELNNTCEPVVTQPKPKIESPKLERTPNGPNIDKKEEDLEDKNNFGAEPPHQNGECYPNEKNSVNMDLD

SMILES | hampering of cell proliferation (SW480 cells) [%] | percentage of interaction of STAT3:HSP110 (HSP110:STAT3 complex) [%] | Myd88 expression (NFκB signaling pathway; TMD8 and HBL1 DLBCL cell lines) | NFκB signaling pathway (P-p65) (NFκB signaling pathway; TMD8 and HBL1 DLBCL cell lines) | IkB phosphorylation (P-IKB) (NFκB signaling pathway) | IC50 (human protein HSP110) [µM]
COc1ccc(-c2ncc(-c3ncc(-c4cc(OC)c(OC)c(OC)c4)cc3/C=C/c3ccccc3)cc2C)cc1OC [compound 33, (E)-6′-(3,4-Dimethoxyphenyl)-5′-methyl-3-styryl-5-(3,4,5-trimethoxyphenyl)-2,3′-bipyridine] | 60 | 20 | reduces | reduces; also recorded: strong decrease | decrease | 58.3 ± 1.7
COc1cc(-c2cnc(-c3cnc(-c4cc(OC)c(OC)c(OC)c4)c(C)c3)c(/C=C/c3ccccc3)c2)cc(OC)c1OC [compound 52, (E)-5′-Methyl-3-styryl-5,6′-bis(3,4,5-trimethoxyphenyl)-2,3′-bipyridine] | 82 | 5 |  | strong decrease | decrease | 86 ± 1.5
